From BindingDB's records for doi:10.1016/s0960-894x(00)00493-5 (Wyeth-Ayerst Research, 2000)

Target: Proto-oncogene tyrosine-protein kinase Src (Homo sapiens, UniProt P12931)
Test: Kinase inhibition Assay
Settings: pH 7.5; 30 °C
Description: Src kinase activity was measured in an ELISA format. IC50 is the inhibitor concentration which inhibits 50% of kinase activity that catalyzes the transfer of the terminal phosphate from ATP to the substrate.

Proto-oncogene tyrosine-protein kinase Src, sequence (P12931 2-536 limits assumed): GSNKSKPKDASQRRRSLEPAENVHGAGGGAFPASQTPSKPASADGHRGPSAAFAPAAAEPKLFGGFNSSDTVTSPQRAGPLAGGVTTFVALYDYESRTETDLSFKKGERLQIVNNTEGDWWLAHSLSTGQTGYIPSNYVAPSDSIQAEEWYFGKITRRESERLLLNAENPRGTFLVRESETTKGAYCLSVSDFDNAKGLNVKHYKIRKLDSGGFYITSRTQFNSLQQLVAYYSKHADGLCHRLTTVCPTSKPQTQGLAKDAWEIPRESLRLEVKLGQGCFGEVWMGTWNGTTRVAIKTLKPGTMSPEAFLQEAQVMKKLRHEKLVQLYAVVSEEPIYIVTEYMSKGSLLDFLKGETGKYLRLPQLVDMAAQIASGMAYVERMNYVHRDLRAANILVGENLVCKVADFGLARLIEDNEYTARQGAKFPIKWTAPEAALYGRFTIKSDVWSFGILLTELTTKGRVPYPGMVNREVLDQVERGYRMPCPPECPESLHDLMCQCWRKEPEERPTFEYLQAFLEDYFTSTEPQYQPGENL

Structure (SMILES): COc1cc2ncc(C#N)c(NCc3cc(OC)c(OC)c(OC)c3)c2cc1OC [6,7-dimethoxy-4-{[(3,4,5-trimethoxyphenyl)methyl]amino}quinoline-3-carbonitrile]
- IC50: > 10 µM
